Source: US20240246918A1, “COMPOUNDS AND COMPOSITIONS AS EIF4E INHIBITORS AND THE USES THEREOF” (Ribometrix, Inc., priority 2022, published 2024)

How the values were obtained:
human eIF4E protein = biological target: T1, human eIF4E protein (Homo sapiens, UniProt P06730); assay: Biochemical competitive binding assay (TR-FRET competition, EDA-m7GDP-ATTO-647N probe); conditions: read-out: hEIF4E TR-FRET IC50
T1 construct: purchased Novus NBP-45314
Outline: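 His-tagged human eIF4E (4 nM) was preincubated with Eu-anti-His antibody (2.5 nM) and added to compound (11-point, 4-fold dilutions) for 15 min. Then 5 nM EDA-m7GDP-ATTO-647N was added for 15 min, in HEPES pH 7.5, 100 mM KCl. The 665/620 TR-FRET ratio was normalized to controls, and IC50 was taken from 4-parameter fits.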

[1] = test system: COLO 205 colorectal tumor cells; assay: Tumor cell viability inhibition assay (CellTiter-Glo 2.0, 72 hours); assay type: cell-based; conditions: COLO 205 cell viability
Outline: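 COLO 205 cells (1500/well, RPMI-1640 + 10% FBS) exposed for 72 h to an 11-point, 4-fold dilution series; cellular ATP read by CellTiter-Glo 2.0 luminescence. Data normalized to DMSO and maximum-inhibition controls; IC50 from 4-parameter curve fit.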

T1 sequence (P06730 whole entry): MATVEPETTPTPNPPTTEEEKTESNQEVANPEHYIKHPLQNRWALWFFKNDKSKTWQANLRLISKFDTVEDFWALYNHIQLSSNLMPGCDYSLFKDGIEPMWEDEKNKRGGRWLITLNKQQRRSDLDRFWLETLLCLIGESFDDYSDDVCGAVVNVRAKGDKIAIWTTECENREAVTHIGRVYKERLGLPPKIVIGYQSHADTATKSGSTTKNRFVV

Row | IC50 (human eIF4E protein) | IC50 ([1]; Homo sapiens, COLO 205, 72 h) | IC50 [1] | SMILES
1 | < 100 nM | < 5000 nM | – | Cc1cc(-c2cc(Cl)ccc2OCCn2c(C)nc3c(c2=O)CC(N2CCC4(CC2)CN(CC(F)(F)F)CC4(F)F)CC3)c2scc(C(=O)O)c2n1 (single isomer, unassigned) [Compound 529]
2 | < 100 nM | < 5000 nM | – | Cc1cc(-c2cc(Cl)ccc2OCCn2c(C)nc3c(c2=O)CC(C)(N2CCC(C(F)(F)F)CC2)CC3)c2scc(C(=O)O)c2n1 (single isomer, unassigned) [Compound 530]
3 | < 100 nM | – | < 5000 nM | Cc1cc(-c2cc(Cl)ccc2OCCn2c(C)nc3c(c2=O)CC(C)(N2CCC(C(F)(F)F)CC2)CC3)c2scc(C(=O)O)c2n1 (single isomer, unassigned) [Compound 531]
4 | < 100 nM | < 5000 nM | – | Cc1cc(-c2cc(Cl)ccc2OCCn2c(C)nc3c(c2=O)C[C@H](N2Cc4cc(F)c(F)cc4C2)CC3)c2scc(C(=O)O)c2n1 (single isomer, unassigned) [Compound 532]
5 | < 100 nM | < 5000 nM | – | Cc1cc(-c2cc(Cl)ccc2OCCn2c(C)nc3c(c2=O)C[C@@H](N2Cc4cc(F)c(F)cc4C2)CC3)c2scc(C(=O)O)c2n1 (single isomer, unassigned) [Compound 533]
6 | < 100 nM | < 5000 nM | – | Cc1nc2c(c(=O)n1CC#Cc1ccc(Cl)cc1-c1ccnc3c(C(=O)O)csc13)CC(N1CCC(OC(F)(F)F)CC1)CC2 (single isomer, unassigned) [Compound 534]
7 | < 100 nM | – | < 5000 nM | Cc1nc2c(c(=O)n1CC#Cc1ccc(Cl)cc1-c1ccnc3c(C(=O)O)csc13)CC(N1CCC(OC(F)(F)F)CC1)CC2 (single isomer, unassigned) [Compound 535]
8 | < 100 nM | 5000 to 20000 nM | – | Cc1nc2c(c(=O)n1CC#Cc1ccc(Cl)cc1-c1ccnc3c(C(=O)O)csc13)C[C@@H](N1CCC[C@]3(C1)CC3(F)F)CC2 (single isomer, unassigned) [Compound 537, 7-(5-chloro-2-(3-(6-(1,1-difluoro-5-azaspiro[2.5]octan-5-yl)-2-methyl-4-oxo-5,6,7,8-tetrahydroquinazolin-3(4H)-yl)prop-1-yn-1-yl)phenyl)thieno[3,2-b]pyridine-3-carboxylic acid]
9 | < 100 nM | < 5000 nM | – | Cc1nc2c(c(=O)n1CC#Cc1ccc(Cl)cc1-c1ccnc3c(C(=O)O)csc13)C[C@@H](N1CCC[C@@]3(C1)CC3(F)F)CC2 (single isomer, unassigned) [Compound 538, 7-(5-chloro-2-(3-(6-(1,1-difluoro-5-azaspiro[2.5]octan-5-yl)-2-methyl-4-oxo-5,6,7,8-tetrahydroquinazolin-3(4H)-yl)prop-1-yn-1-yl)phenyl)thieno[3,2-b]pyridine-3-carboxylic acid]
10 | < 100 nM | < 5000 nM | – | Cc1cc(-c2cc(Cl)ccc2OCCn2c(C)nc3c(c2=O)C[C@@](C)(N2CCC[C@]4(C2)CC4(F)F)CC3)c2scc(C(=O)O)c2n1 (single isomer, unassigned) [Compound 539]
11 | < 100 nM | < 5000 nM | – | Cc1cc(-c2cc(Cl)ccc2OCCn2c(C)nc3c(c2=O)C[C@H](N2CCCC[C@H]2c2cccc(F)c2)CC3)c2scc(C(=O)O)c2n1 (single isomer, unassigned) [Compound 540]
12 | < 100 nM | < 5000 nM | – | Cc1cc(-c2cc(Cl)ccc2OCCn2c(C)nc3c(c2=O)C[C@H](N2CCCC[C@@H]2c2cccc(F)c2)CC3)c2scc(C(=O)O)c2n1 (single isomer, unassigned) [Compound 541]
13 | < 100 nM | < 5000 nM | – | Cc1cc(-c2cc(Cl)ccc2OCCn2c(C)nc3c(c2=O)C[C@@H](N2CCCC[C@H]2c2cccc(F)c2)CC3)c2scc(C(=O)O)c2n1 (single isomer, unassigned) [Compound 542]
14 | < 100 nM | > 20000 nM | – | Cc1cc(-c2cc(Cl)ccc2OCCn2c(C)nc3c(c2=O)C[C@@H](N2CCCC[C@@H]2c2cccc(F)c2)CC3)c2scc(C(=O)O)c2n1 (single isomer, unassigned) [Compound 543]
15 | < 100 nM | < 5000 nM | – | Cc1cc(-c2cc(Cl)ccc2OCCn2c(C)nc3c(c2=O)C[C@@H](N2CCCC(F)(F)CC2)CC32CC2)c2scc(C(=O)O)c2n1 (single isomer, unassigned) [Compound 544]
16 | < 100 nM | < 5000 nM | – | Cc1cc(-c2cc(Cl)ccc2OCCn2c(C)nc3c(c2=O)C[C@H](N2CCCC(F)(F)CC2)CC32CC2)c2scc(C(=O)O)c2n1 (single isomer, unassigned) [Compound 545]
17 | < 100 nM | < 5000 nM | – | Cc1cc(-c2cc(Cl)ccc2OCCn2c(C)nc3c(c2=O)C[C@H](N2CCCC[C@H]2c2nccs2)CC3)c2scc(C(=O)O)c2n1 (single isomer, unassigned) [Compound 546]
18 | < 100 nM | < 5000 nM | – | Cc1cc(-c2cc(Cl)ccc2OCCn2c(C)nc3c(c2=O)C[C@H](N2CCCC[C@@H]2c2nccs2)CC3)c2scc(C(=O)O)c2n1 (single isomer, unassigned) [Compound 547]

Row | IC50 (human eIF4E protein) | IC50 ([1]; Homo sapiens, COLO 205, 72 h) | IC50 [1] | SMILES
19 | 100 to 500 nM | > 20000 nM | – | Cc1cc(-c2cc(Cl)ccc2OCCn2c(C)nc3c(c2=O)C[C@@H](N2CCCC[C@H]2c2nccs2)CC3)c2scc(C(=O)O)c2n1 (single isomer, unassigned) [Compound 548]
20 | 100 to 500 nM | > 20000 nM | – | Cc1cc(-c2cc(Cl)ccc2OCCn2c(C)nc3c(c2=O)C[C@@H](N2CCCC[C@@H]2c2nccs2)CC3)c2scc(C(=O)O)c2n1 (single isomer, unassigned) [Compound 549]
21 | < 100 nM | < 5000 nM | – | Cc1nc2c(c(=O)n1CC#Cc1ccc(Cl)cc1-c1ccnc3c(C(=O)O)csc13)C[C@H](N1CCC[C@@]3(C1)CC3(F)F)CC2 (single isomer, unassigned) [Compound 550, 7-(5-chloro-2-(3-(6-(1,1-difluoro-5-azaspiro[2.5]octan-5-yl)-2-methyl-4-oxo-5,6,7,8-tetrahydroquinazolin-3(4H)-yl)prop-1-yn-1-yl)phenyl)thieno[3,2-b]pyridine-3-carboxylic acid]
22 | < 100 nM | < 5000 nM | – | CO[C@@H](C1CCN([C@@H]2CCc3nc(C)n(CCOc4ccc(Cl)cc4-c4cc(C)nc5c(C(=O)O)csc45)c(=O)c3C2)CC1)C(F)(F)F (single isomer, unassigned) [Compound 551]
23 | < 100 nM | < 5000 nM | – | CO[C@H](C1CCN([C@@H]2CCc3nc(C)n(CCOc4ccc(Cl)cc4-c4cc(C)nc5c(C(=O)O)csc45)c(=O)c3C2)CC1)C(F)(F)F (single isomer, unassigned) [Compound 552]
24 | < 100 nM | < 5000 nM | – | Cc1cc(-c2cc(Cl)ccc2OCCn2c(C)nc3c(c2=O)C[C@](C)(N2CCC[C@]4(C2)CC4(F)F)CC3)c2scc(C(=O)O)c2n1 (single isomer, unassigned) [Compound 553]
25 | 100 to 500 nM | 5000 to 20000 nM | – | Cc1cc(-c2cc(Cl)ccc2OCCn2c(C)nc3c(c2=O)C[C@](C)(N2CCC[C@@]4(C2)CC4(F)F)CC3)c2scc(C(=O)O)c2n1 (single isomer, unassigned) [Compound 554]
26 | 100 to 500 nM | 5000 to 20000 nM | – | Cc1cc(-c2cc(Cl)ccc2OCCn2c(C)nc3c(c2=O)C[C@@](C)(N2CCC[C@@]4(C2)CC4(F)F)CC3)c2scc(C(=O)O)c2n1 (single isomer, unassigned) [Compound 555]
27 | < 100 nM | < 5000 nM | – | Cc1cc(-c2cc(Cl)ccc2OCCn2c(C)nc3c(c2=O)CC(C)(N2CCC4(CC2)CC4(F)F)CC3)c2scc(C(=O)O)c2n1 (single isomer, unassigned) [Compound 556]
28 | < 100 nM | – | < 5000 nM | Cc1cc(-c2cc(Cl)ccc2OCCn2c(C)nc3c(c2=O)CC(C)(N2CCC4(CC2)CC4(F)F)CC3)c2scc(C(=O)O)c2n1 (single isomer, unassigned) [Compound 557]
29 | 100 to 500 nM | 5000 to 20000 nM | – | CO[C@@H]1CCN([C@]2(C)CCc3nc(C)n(CCOc4ccc(Cl)cc4-c4cc(C)nc5c(C(=O)O)csc45)c(=O)c3C2)CC1(C)C (single isomer, unassigned) [Compound 558]
30 | 100 to 500 nM | 5000 to 20000 nM | – | COC1CCN(C2(C)CCc3nc(C)n(CCOc4ccc(Cl)cc4-c4cc(C)nc5c(C(=O)O)csc45)c(=O)c3C2)CC1(C)C (single isomer, unassigned) [Compound 559]
31 | < 100 nM | < 5000 nM | – | Cc1cc(-c2cc(Cl)ccc2OCCn2c(C)nc3c(c2=O)C[C@H](N2CCC(COC(F)(F)F)CC2)CC32CC2)c2scc(C(=O)O)c2n1 (single isomer, unassigned) [Compound 560]
32 | < 100 nM | < 5000 nM | – | Cc1cc(-c2cc(Cl)ccc2OCCn2c(C)nc3c(c2=O)C[C@@H](N2CCC(COC(F)(F)F)CC2)CC32CC2)c2scc(C(=O)O)c2n1 (single isomer, unassigned) [Compound 561]
33 | < 100 nM | < 5000 nM | – | CO[C@@H](C1CCN([C@H]2CCc3nc(C)n(CCOc4ccc(Cl)cc4-c4cc(C)nc5c(C(=O)O)csc45)c(=O)c3C2)CC1)C(F)(F)F (single isomer, unassigned) [Compound 562]
34 | < 100 nM | < 5000 nM | – | CO[C@H](C1CCN([C@H]2CCc3nc(C)n(CCOc4ccc(Cl)cc4-c4cc(C)nc5c(C(=O)O)csc45)c(=O)c3C2)CC1)C(F)(F)F (single isomer, unassigned) [Compound 563]
35 | < 100 nM | < 5000 nM | – | Cc1cc(-c2cc(Cl)ccc2OCCn2c(C)nc3c(c2=O)C[C@H](N2CCC4(CC2)CC4(F)F)CC32CC2)c2scc(C(=O)O)c2n1 (single isomer, unassigned) [Compound 564]
